# Where two headings read alike, the source gives them in different places.
# Columns and labels:
# Assay in all cases: KiNativ, MOLM13 live cells
# Format in all cases: cell-based
# ZAP70 = target: T1, ZAP70 (Homo sapiens, UniProt P43403); conditions: MOLM-13; 100 nM, 2 hours; Activation Loop; read-out: Inhibition vs DMSO
# T1 sequence (P43403 1-619): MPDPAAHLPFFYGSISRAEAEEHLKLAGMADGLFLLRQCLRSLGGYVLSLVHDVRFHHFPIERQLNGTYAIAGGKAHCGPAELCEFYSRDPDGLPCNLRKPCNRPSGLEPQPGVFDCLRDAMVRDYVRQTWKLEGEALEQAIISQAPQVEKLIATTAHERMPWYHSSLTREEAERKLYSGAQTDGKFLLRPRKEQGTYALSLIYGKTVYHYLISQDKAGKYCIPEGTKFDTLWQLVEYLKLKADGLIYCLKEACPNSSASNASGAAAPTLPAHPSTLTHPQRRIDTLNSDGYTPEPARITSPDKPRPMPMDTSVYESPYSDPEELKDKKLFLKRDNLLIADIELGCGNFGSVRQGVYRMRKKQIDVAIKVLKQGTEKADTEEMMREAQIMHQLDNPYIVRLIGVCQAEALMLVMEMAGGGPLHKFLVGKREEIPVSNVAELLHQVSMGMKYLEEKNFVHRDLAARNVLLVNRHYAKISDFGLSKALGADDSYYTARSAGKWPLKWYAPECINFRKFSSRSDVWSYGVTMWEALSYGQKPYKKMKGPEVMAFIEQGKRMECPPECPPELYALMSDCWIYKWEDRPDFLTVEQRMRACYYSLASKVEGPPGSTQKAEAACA
# Experimental: (§1) Samples were analyzed by KiNativ in situ kinase profiling by ActivX Biosciences.
# MAP3K5 = MAP3K5 (Homo sapiens, UniProt Q99683); conditions: MOLM-13; 100 nM, 2 hours; Lys2; read-out: Inhibition vs DMSO
# Experimental: as §1
# FES = FES (Homo sapiens, UniProt P07332); conditions: MOLM-13; 100 nM, 2 hours; Lys1; read-out: Inhibition vs DMSO
# Experimental: as §1
# SLK = SLK (Homo sapiens, UniProt Q9H2G2); conditions: MOLM-13; 100 nM, 2 hours; Lys2; read-out: Inhibition vs DMSO
# Experimental: as §1
# PIP5K3 = PIP5K3 (Homo sapiens, UniProt Q9Y2I7); conditions: 100 nM, 2 hours; ATP
# Experimental: as §1
# JAK2 domain2 = target: T2, JAK2 domain2 (Homo sapiens, UniProt O60674); conditions: 100 nM, 2 hours; Activation Loop
# T2 construct: JAK2 domain2
# Experimental: as §1
# Erk2 = Erk2 (Homo sapiens, UniProt P28482); conditions: MOLM-13; 100 nM, 2 hours; Lys2; read-out: Inhibition vs DMSO
# Experimental: as §1
# PEK = PEK (Homo sapiens, UniProt Q9NZJ5); conditions: 100 nM, 2 hours, Lys2, read-out: Inhibition vs DMSO
# Experimental: as §1
# PIP4K2C = target: T3, PIP4K2C (Homo sapiens, UniProt Q8TBX8); conditions: MOLM-13, 2 h, 100 nM, ATP, read-out: Inhibition vs DMSO
# T3 sequence (Q8TBX8 1-421): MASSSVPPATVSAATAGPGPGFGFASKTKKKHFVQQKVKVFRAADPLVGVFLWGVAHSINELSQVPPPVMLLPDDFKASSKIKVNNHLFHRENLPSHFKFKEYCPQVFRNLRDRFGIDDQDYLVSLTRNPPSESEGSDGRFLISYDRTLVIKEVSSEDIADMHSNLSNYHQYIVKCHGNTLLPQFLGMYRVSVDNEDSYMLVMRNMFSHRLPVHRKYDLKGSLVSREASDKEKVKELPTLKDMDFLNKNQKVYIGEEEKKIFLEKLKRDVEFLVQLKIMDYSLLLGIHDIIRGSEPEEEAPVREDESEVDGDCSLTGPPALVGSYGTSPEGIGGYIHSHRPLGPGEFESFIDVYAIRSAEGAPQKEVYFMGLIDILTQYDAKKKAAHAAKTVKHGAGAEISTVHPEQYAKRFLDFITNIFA
# Experimental: as §1
# MAP4K5 = MAP4K5 (Homo sapiens, UniProt Q9Y4K4); conditions: MOLM-13, 2 h, 100 nM
# Experimental: as §1
# STLK5 = target: T4, STLK5 (Homo sapiens, UniProt Q7RTN6); conditions: MOLM-13, 2 h, 100 nM
# T4 sequence (Q7RTN6 1-431): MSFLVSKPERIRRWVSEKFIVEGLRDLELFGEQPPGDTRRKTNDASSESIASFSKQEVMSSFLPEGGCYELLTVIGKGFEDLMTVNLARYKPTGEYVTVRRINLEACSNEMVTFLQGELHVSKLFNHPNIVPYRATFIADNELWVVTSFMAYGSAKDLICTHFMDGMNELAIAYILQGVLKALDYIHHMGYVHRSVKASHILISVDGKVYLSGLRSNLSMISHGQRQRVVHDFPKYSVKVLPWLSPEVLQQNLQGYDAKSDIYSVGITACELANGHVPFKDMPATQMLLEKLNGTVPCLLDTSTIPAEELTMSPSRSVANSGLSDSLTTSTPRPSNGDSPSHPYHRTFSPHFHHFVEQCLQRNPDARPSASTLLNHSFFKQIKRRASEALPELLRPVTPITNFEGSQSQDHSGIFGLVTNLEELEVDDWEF
# Experimental: as §1
# PIK3CG = PIK3CG (Homo sapiens, UniProt P48736); conditions: MOLM-13; 100 nM, 2 hours; ATP; read-out: Inhibition vs DMSO
# Experimental: as §1
# Erk5 = Erk5 (Homo sapiens, UniProt Q13164); conditions: MOLM-13; 100 nM, 2 hours; Lys2; read-out: Inhibition vs DMSO
# Experimental: as §1
# AKT1 = AKT1 (Homo sapiens, UniProt P31749); conditions: MOLM-13; 100 nM, 2 hours; ATP Loop; read-out: Inhibition vs DMSO
# Experimental: as §1
# [1] = Lys2, read-out: Inhibition vs DMSO
# MAP4K5, sequence (Q9Y4K4 whole entry): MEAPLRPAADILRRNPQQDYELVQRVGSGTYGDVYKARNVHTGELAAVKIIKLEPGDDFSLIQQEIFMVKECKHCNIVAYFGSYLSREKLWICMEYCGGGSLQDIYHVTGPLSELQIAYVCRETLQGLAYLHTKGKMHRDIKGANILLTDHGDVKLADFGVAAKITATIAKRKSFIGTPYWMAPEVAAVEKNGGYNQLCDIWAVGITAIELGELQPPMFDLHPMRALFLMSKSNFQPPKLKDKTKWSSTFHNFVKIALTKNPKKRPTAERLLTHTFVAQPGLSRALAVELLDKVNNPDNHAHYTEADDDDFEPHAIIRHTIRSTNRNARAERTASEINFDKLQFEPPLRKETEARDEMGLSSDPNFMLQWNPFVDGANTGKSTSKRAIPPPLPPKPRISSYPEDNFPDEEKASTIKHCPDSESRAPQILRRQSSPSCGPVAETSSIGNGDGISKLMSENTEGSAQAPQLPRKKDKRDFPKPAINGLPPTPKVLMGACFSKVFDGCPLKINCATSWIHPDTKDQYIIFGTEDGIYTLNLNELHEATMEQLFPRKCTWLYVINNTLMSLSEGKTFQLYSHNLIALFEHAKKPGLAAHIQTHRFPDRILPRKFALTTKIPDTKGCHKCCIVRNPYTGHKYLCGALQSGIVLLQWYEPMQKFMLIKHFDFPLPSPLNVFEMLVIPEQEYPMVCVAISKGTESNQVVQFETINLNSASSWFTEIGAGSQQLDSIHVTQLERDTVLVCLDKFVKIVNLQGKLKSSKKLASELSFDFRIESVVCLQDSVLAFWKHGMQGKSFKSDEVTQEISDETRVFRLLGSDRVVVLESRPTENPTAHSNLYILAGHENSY
# Erk2, sequence (P28482 whole entry): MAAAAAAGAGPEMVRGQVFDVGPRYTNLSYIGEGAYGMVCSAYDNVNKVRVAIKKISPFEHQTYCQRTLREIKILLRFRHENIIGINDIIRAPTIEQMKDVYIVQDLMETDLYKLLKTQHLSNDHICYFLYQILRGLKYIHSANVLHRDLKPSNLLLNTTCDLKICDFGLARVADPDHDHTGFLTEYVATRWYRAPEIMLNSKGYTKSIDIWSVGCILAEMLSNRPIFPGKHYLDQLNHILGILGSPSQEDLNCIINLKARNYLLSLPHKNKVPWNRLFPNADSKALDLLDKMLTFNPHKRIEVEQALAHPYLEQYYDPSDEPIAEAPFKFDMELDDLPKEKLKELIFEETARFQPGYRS
# Erk5, sequence (Q13164 whole entry): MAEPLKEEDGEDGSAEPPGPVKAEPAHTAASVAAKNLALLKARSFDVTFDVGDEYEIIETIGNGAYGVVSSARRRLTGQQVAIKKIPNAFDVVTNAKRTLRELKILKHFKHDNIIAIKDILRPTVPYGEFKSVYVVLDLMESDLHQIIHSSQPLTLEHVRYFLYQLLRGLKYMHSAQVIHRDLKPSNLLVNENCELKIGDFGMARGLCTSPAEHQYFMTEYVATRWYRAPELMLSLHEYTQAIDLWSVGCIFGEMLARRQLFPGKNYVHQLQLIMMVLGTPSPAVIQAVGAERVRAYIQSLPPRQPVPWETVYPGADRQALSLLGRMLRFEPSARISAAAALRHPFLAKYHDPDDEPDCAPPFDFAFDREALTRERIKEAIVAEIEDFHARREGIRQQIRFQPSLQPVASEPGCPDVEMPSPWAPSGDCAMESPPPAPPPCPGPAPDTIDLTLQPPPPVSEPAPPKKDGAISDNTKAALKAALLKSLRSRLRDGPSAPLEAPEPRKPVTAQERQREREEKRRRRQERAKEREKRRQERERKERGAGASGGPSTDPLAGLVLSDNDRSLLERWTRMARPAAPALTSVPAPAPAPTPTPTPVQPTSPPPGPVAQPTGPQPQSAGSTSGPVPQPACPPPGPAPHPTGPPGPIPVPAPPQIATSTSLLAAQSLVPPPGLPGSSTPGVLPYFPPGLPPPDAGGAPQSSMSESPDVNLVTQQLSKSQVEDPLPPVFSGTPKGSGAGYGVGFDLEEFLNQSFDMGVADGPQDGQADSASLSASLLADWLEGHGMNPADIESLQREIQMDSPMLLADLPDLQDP
# PEK, sequence (Q9NZJ5 30-1116): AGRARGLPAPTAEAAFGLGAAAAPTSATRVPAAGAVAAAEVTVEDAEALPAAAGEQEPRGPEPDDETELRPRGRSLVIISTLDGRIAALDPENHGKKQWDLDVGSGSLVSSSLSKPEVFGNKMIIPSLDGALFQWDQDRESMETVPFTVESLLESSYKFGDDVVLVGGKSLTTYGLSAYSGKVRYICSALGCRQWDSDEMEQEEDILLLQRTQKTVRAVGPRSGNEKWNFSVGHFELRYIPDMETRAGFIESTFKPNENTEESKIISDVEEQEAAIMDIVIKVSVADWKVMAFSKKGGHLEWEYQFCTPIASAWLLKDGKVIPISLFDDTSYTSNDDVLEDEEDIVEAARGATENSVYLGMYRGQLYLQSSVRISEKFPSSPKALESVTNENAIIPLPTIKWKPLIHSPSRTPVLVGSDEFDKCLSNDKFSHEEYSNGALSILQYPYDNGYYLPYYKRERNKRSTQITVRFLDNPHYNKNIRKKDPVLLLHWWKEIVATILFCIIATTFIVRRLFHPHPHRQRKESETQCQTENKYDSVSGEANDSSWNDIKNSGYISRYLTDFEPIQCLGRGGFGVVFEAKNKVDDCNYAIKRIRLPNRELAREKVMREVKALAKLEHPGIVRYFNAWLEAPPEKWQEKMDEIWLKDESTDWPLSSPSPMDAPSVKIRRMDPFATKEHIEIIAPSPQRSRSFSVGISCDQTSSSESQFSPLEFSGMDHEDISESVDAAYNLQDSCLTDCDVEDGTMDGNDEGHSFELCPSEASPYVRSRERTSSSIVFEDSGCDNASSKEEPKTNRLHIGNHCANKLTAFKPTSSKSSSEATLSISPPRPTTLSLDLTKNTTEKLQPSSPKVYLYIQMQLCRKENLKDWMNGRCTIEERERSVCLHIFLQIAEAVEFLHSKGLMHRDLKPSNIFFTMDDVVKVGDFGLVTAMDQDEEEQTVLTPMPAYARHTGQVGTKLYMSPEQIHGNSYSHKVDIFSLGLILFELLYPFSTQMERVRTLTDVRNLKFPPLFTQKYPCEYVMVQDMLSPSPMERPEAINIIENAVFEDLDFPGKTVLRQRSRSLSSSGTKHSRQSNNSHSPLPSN
# FES, sequence (P07332 whole entry): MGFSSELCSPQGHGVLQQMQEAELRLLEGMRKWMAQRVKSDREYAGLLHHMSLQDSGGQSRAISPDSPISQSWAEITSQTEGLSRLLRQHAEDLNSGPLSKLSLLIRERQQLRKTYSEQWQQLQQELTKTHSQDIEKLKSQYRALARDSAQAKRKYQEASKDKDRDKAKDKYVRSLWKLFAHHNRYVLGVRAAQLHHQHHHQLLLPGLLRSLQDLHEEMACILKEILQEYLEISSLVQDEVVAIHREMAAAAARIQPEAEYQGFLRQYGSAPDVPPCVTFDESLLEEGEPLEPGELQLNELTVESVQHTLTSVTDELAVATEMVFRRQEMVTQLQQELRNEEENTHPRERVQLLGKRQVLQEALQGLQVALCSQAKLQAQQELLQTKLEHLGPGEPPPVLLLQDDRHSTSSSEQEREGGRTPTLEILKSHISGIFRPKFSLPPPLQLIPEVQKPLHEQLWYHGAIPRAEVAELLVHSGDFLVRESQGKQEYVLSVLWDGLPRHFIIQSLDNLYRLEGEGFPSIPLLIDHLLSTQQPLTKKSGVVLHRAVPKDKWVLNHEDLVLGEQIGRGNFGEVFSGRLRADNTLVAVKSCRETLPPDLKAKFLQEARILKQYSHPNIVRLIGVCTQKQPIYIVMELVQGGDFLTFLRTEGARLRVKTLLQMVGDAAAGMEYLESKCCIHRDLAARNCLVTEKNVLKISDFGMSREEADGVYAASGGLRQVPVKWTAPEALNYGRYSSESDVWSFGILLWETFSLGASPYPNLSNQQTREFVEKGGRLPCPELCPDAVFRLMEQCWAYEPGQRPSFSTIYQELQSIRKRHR
# T2 sequence (O60674 whole entry, the tested form may be a part): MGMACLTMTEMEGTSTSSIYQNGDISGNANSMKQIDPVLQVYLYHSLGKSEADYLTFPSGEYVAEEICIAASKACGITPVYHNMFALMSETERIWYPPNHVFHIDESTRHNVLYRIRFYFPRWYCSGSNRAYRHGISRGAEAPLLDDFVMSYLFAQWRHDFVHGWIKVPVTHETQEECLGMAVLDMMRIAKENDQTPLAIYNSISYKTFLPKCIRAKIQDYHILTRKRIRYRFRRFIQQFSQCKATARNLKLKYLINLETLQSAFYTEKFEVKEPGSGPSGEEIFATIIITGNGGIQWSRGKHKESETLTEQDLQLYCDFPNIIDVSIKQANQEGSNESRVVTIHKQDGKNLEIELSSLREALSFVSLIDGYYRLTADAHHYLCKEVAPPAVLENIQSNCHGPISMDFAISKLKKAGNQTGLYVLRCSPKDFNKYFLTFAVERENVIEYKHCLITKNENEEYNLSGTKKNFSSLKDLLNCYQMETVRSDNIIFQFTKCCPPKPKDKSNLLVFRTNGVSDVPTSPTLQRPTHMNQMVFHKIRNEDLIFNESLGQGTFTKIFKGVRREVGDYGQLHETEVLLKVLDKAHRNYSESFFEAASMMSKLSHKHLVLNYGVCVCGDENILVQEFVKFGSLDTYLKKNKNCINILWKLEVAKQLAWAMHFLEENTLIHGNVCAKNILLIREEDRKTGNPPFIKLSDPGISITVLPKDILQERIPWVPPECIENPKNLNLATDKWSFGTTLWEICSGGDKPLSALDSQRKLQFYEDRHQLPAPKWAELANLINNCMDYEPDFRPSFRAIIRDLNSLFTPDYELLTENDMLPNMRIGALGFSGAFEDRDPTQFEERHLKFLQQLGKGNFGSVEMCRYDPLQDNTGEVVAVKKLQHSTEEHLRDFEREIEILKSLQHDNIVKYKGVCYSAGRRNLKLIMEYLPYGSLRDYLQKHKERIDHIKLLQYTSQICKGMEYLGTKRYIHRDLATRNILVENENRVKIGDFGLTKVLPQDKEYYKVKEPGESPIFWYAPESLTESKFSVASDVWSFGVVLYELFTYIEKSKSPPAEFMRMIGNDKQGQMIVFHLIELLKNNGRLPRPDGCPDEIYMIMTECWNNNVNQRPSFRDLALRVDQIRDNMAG
smiles,measurement,setting,value
CN1CCN(Cc2ccc(Nc3ncc(Cl)c(Nc4ccccc4S(=O)(=O)N(C)C)n3)cc2)CC1 [TP-0903],inhibition at 0.1 µM,ZAP70,26.3%
same,inhibition at 0.1 µM,MAP3K5,0.5%
same,inhibition at 0.1 µM,FES,1%
same,inhibition at 0.1 µM,SLK,72.2%
same,Inhibition vs DMSO,PIP5K3,50.9%
same,Inhibition vs DMSO,JAK2 domain2,-68.6%
same,inhibition at 0.1 µM,Erk2,-9.4%
same,inhibition at 0.1 µM,PEK,1.7%
same,inhibition at 0.1 µM,PIP4K2C; TLVIKEVSSEDIADMHSNLSNYHQYIVK,-26%
same,inhibition at 0.1 µM,PIP4K2C; VKELPTLKDMDFLNK,-26.5%
same,inhibition at 0.1 µM,"MAP4K5; Lys1, read-out: Inhibition vs DMSO",54.8%
same,inhibition at 0.1 µM,MAP4K5; [1],42.9%
same,inhibition at 0.1 µM,"STLK5; Activation Loop, read-out: Inhibition vs DMSO",4.2%
same,inhibition at 0.1 µM,STLK5; [1],-19%
same,inhibition at 0.1 µM,PIK3CG,-8.5%
same,inhibition at 0.1 µM,Erk5,84.9%
same,inhibition at 0.1 µM,AKT1,-54.3%

# Source: publication PMC7714403 (JCI Insight, 2020)
